Patent US20090169648A1, “COMPOSITIONS TO REDUCE BLOOD GLUCOSE LEVELS AND TREAT DIABETES” (Astrum Therapeutics Pty Ltd, priority 2006, published 2009)
Where two headings read alike, the source gives them in different places.

How the values were obtained:
T2DM patients [1] = settings: 200 μg twice daily, 12 weeks, versus placebo; cited from earlier work
T2DM patients [2] = settings: 200 μg twice daily, three weeks, cited from earlier work
DM patients = settings: cited from earlier work
humans [3] = settings: cited from earlier work
humans [4] = settings: seven clinical trials; cited from earlier work
[5] = test system: Fatty diabetic Zucker rats; assay: Fatty diabetic Zucker rats, 4-week diets, fasting glucose; assay type: in vivo, rat; settings: diet for 4 weeks
Method: Fatty diabetic Zucker rats were separated into three groups to receive three diets for 4 weeks: a) 1% Mg in diet (5 times higher than control diet); b) a combination including 2 g/L of vitamin C in drinking water, 2.5% of KM in diet, 400 mg/kg of α-LA; c) Comp1 that includes 1% of Mg in diet, 2 g/L of vitamin C in drinking water, 2.5% of KM in diet, 400 mg/kg of α-LA.
No change in the level of fasting glucose level vs baseline was observed by the administration of Mg. 17% reduction of glucose vs baseline was observed by the combination of Vitamin C, KM and α-LA. 28% reduction of glucose vs baseline was observed by Comp1 (the combination of Vitamin C, KM and α-LA with Mg salt)

[6] = test system: timed-pregnant Sprague-Dawley rats; settings: rat, in vivo; cited from earlier work
humans [7] = settings: exposure of humans; cited from earlier work

Compound: Chromium picolinate [CrPic]
- improvement in fasting glucose (T2DM patients [1]): 0.44 mM
- improvement in post-prandial serum glucose (T2DM patients [1]): 1.97 mM
- reduction in glucose versus baseline (T2DM patients [2]; T2DM patients): −21%
- change in cholesterol versus baseline (T2DM patients [2]): −9.4%
- change in triglycerides versus baseline (T2DM patients [2]): −10.5%
- glycated hemoglobin (HbA1C) after treatment (T2DM patients [2]; from 8.2% at baseline): 7.6%

Compound: O=C(O)CCCCC1CCSS1 (stereo not drawn) [α-LA, Alpha-lipoic acid]
- decrease of levels of peroxides (DM patients): 34%
- reduction of fasting glucose level (humans [3]; lean T2DM patients): ~15%
- reduction of fasting glucose level (humans [3]; patients with diabetic neuropathy): 18%
- effect on glucose levels (humans [3]; two clinical trials): no effect

Compound: [Cl-].[Cl-].[Mg+2] [Mg, Magnesium Chloride]
- effect on glucose levels (humans [4]): failed to show reduced glucose levels
- reduction of fasting glucose level vs baseline [5]: No change

Compound: CCN(CC)CCO [diethylethanolamine]
- reduction of body weight [6]: 9.5%
- reduction of weight gain [6]: 48%

Compound: OCCNCCO [diethanolamine]
- individuals developing asthma (humans [7]): 0.6%
